The text below walks through data of patent publication US8841317B2 (Emory University, priority 2010, dated 2014).

In series [1] the test system is RAW 264.7 murine macrophages. Kind of series: Nitric oxide release from TLR ligand-stimulated murine macrophages (Griess method). Format: cell-based. The conditions noted are these: TLR ligands LPS or Pam3CSK4. How it is done: (§1) TLR ligand concentrations ranging from (LPS: 10-0.31 picomolar (pM) and Pam3CSK4: 10-0.31 μg/ml) and non-TLR ligands (mouse IP-10 and TNFα: 1000-31 pg/ml) were made in duplicate wells using sterile PBS by serial fold dilutions in the 96-well tissue culture plates at 50 μl final volumes. Freshly grown THP-1cells, RAW264.7, ScCr, HEK-TLR2/6 and HEK-TLR4-MD2-CD14 transfected cells each adjusted to 10^6 cell/ml and 250 μl aliquots were dispensed into each well at a final cell density of 250×10^3 in the designated 96-well plates. The plates were then incubated overnight at 37° C. with 5% CO2 and humidity. Supernatants from stimulated cells were harvested and stored at −20° C. until further use.
(§2) Freshly grown adherent RAW 246.7 or 23ScCr (TLR4-deficient) macrophages were scraped by a cell scraper. Harvested cells were washed and re-suspended in Dulbecco's complete media, counted and adjusted to 10^6 cell/ml. […] aliquots were then dispensed into each well at final 250×10^3 cell density in the designated 96-well plates prior to stimulation with TLR ligands or recombinant cytokines as mentioned above. […] Nitric oxide release was quantified using the Griess chemical method as previously described [Zughaier S M, Tzeng Y L, Zimmer S M, Datta A, Carlson R W, et al. (2004) Neisseria meningitidis lipooligosaccharide structure-dependent activation of the macrophage CD14/Toll-like receptor 4 pathway. […]
A general note: Griess reagent forms a coloured azo dye with nitrite.

The test system of the next series is THP-1 human macrophages. Kind of series: TNFα release from TLR ligand-stimulated human macrophages (ELISA). The series is classed as cell-based. As to conditions: human and murine macrophages; TLR ligands LPS or Pam3CSK4. How it is done: as §1
(§3) Released cytokines TNFα and IL-6 and chemokines CXCL10 (IP-10), MIP-2α and IL-8 were quantified by DuoSet ELISA (R&D Systems, Minneapolis, Minn.) following the manufacturer's instructions as previously described [Zughaier S M, Zimmer S M, Datta A, Carlson R W, Stephens D S (2005) Differential induction of the toll-like receptor 4-MyD88-dependent and -independent signaling pathways by endotoxins. Infect Immun 73: 2940-2950.].

The subject of series [2] is HEK293 cells transfected with TLR2 alone or TLR2/6 receptors. Kind of series: Pam3CSK4-induced IL-8 release (ELISA). As to conditions: no drug = 1400 pg/ml. The series is classed as cell-based, human. How it is done:
as §1, §3
(In general: ELISA stands for enzyme-linked immunosorbent assay.)

Series [3] deals with THP-1 cells. The experiment in a line: LDH release into supernatant. Format: cell-based, human. As to conditions: THP-1 cells incubated 48 hr with 50 μM; DMSO control 5 IU/L. How it is done:
(§4) Biochim Biophys Acta 887: 13-22.]. […] Cellular aliquots (100 μl) were taken daily and cells were diluted 1:1 with the vital dye trypan blue 0.4% solution (Cellgro, Mediatech Inc, Herndon, Va.) in PBS and viable cells were counted. LDH release into the supernatant was also measured to assess the toxicity of the drugs. […] Cell Microbiol 7: 1251-1262.].
On the technique in general: Release of lactate dehydrogenase indicates damage to the cell membrane.

For series [4], the system named is human or murine macrophages. The experiment in a line: Cellular viability (trypan blue exclusion, morphology, LDH). Format: cell-based, human and murine. How it is done: as §4
For series [5] the following is noted: doses as high as 300 mg/kg; cited from earlier work.
The test system of series [6] is human macrophage cells THP-1. The experiment in a line: Autophagy by electron microscopy. Format: cell-based. As to conditions: overnight, LPS 2 pM plus drug 50 μM. On the procedure: Human macrophage cells were fixed for 1 hr with 2% glutaraldehyde in 0.1M sodium cacodylate buffer, rinsed in the same buffer and the post-fixed with 2% osmium tetroxide in the same buffer for 1 hr at room temperature. The samples were then dehydrated with a graded ethanol series through 3×100%, 2× in propylene oxide and embedded in Spurr's resin. Sections were stained with 1% uranyl acetate and lead citrate. Electron microscopy imaging was then performed at a magnification of 3597×.

The test system of series [7] is THP-1 cells. The experiment in a line: Detection of acidic vesicular organelles (acridine orange). Format: cell-based, human. The conditions noted are these: 24 hr treatment, acridine orange 1 μg/ml. How it is done:
THP-1 cells were plated on cover slips and allowed to attach. Following treatments for 24 hr with DMSO alone (control), Red-Br-nos, LPS, Red-Br-nos and LPS, cells were stained with 1 μg/ml acridine orange for 15 min, washed with PBS, and examined under a Zeiss fluorescence microscope using a 40× objective lens [Herman-Antosiewicz A, Johnson D E, Singh S V (2006) Sulforaphane causes autophagy to inhibit release of cytochrome C and apoptosis in human prostate cancer cells. Cancer Res 66: 5828-5835.].

Series [8] concerns ScCr (TLR4-deficient) cells. Kind of series: Sterile inflammation: nitric oxide release after murine TNFα stimulation. The series is classed as cell-based. The conditions noted are these: 50 μM for 1 hr or overnight, then murine TNFα 1000-31.2 pg/ml. How it is done:
as §1, §2

Series [9] relates to RAW264 (TLR4-sufficient) cells. Kind of series: Sterile inflammation: nitric oxide release after murine IP-10 (CXCL10) stimulation. The conditions noted are these: 50 μM for 1 hr or overnight, then murine IP-10 1000-31.2 pg/ml. The series is classed as cell-based. How it is done: as §1, §2
A further series has as its system THP-1 macrophages. Kind of series: Respiratory burst ROS release (lucigenin chemiluminescence). The series is classed as cell-based, human. On the procedure: The enhanced chemiluminescence method was used as previously described [Zughaier S M, Ryley H C, Jackson S K (1999) A melanin pigment purified from an epidemic strain of Burkholderia cepacia attenuates monocyte respiratory burst activity by scavenging superoxide anion. Infect Immun 67: 908-913.]. Briefly, freshly grown THP-1 cells were adjusted to 2×10^6/ml, transferred to two large tissue culture flasks labeled as primed or unstimulated. Two pmole/ml LPS were added to prime cells or left unstimulated as control cells. Both flasks were incubated overnight at 37° C. under 5% CO2. […] The cells were collected in universal tubes, washed twice with culture medium and resuspended in standard buffer (4.58 mM KH2PO4, 8.03 mM NaHPO4, 0.5 mM MgCl2, 0.45 mM CaCl2, 1% (w/v) glucose, 0.033% (w/v) KCl, 0.76% (w/v) NaCl and 0.1% (w/v) endotoxin-free bovine serum albumin (pH 7.3) at 2×10^6/ml. The chemiluminescence probe lucigenin (Sigma) was added to the cell suspension (25 μl/ml of cells from 1.0 mM stock solution) and mixed gently. Aliquots (150 μl) of the cellular mixture were transferred into at least quadruplicate wells of a white 96-well plate (FluoroNunc-PolySorp; Nalge Nunc International, Rochester, N.Y.). The respiratory burst was triggered with 50 μl of PMA (1 μM). Chemiluminescence was measured in relative light units (a measure of the number of photons generated by the reaction at each time point). Chemiluminescence was measured using a luminometer (ML3000, Dynatech Laboratories Inc. Chantilly, Va.) and the plate was read immediately and then at 2 min intervals for the next 90 min [Zughaier S M, Ryley H C, Jackson S K (1999) A melanin pigment purified from an epidemic strain of Burkholderia cepacia attenuates monocyte respiratory burst activity by scavenging superoxide anion. Infect Immun 67: 908-9131.

Entries after “also recorded” stand apart in the source; their conditions may differ. Like-named read-outs stand apart in the source and are kept apart here.

As for `COc1ccc2c(c1OC)C(=O)O[C@@H]2[C@H]1c2c(c(Br)c3c(c2OC)OCO3)CCN1C` [Br-nos, (S)-3-((R)-9-bromo-4-methoxy-6-methyl-5,6,7,8-tetrahydro-[1,3]dioxolo[4,5-g]isoquinolin-5-yl)-6,7-dimethoxyiso-benzofuran-1(3H)-one], the “TLR-mediated nitric oxide (NO) release” value in series [1] is on record as “dampened”. In addition, the “TLR-mediated TNFα release” value in the series with THP-1 human macrophages is on record as “dampened”. The same molecule registered an IL-8 release in series [2] of 650 pg/mL. Besides, the LDH release with THP-1 cells [3] is on record as 8 IU/L. The “cellular toxicity / viability” value in [4] (human and murine macrophages) is “without evidence of cellular toxicity”. In addition, in [5], the toxicity result is recorded as “non-toxic”.
For the molecule `COc1ccc2c(c1OC)CO[C@@H]2[C@H]1c2c(c(Br)c3c(c2OC)OCO3)CCN1C` [Red-Br-nos, (R)-9-bromo-5-((S)-4,5-dimethoxy-1,3-dihydroisobenzofuran-1-yl)-4-methoxy-6-methyl-5,6,7,8-tetrahydro-[1,3]di-oxolo-[4,5-g]isoquinoline], in [1], the “TLR-mediated nitric oxide (NO) release” value is “dampened”. For the same molecule, the “TLR-mediated TNFα release” value in the series on THP-1 human macrophages is on record as “dampened”. The molecule also displayed an IL-8 release in series [2] of 400 pg/mL. Further, the LDH release in the series with THP-1 cells [3] turned out to be 10 IU/L. Besides, the “cellular toxicity / viability” value in series [4] is on record as “without evidence of cellular toxicity”. Moreover, the “autophagy-related vacuolation (electron micrographs)” value in series [6] is listed as “increased vacuolation in the cytoplasm”. Besides, the “acidic vesicular organelles (AVOs)” value in the series on THP-1 cells [7] was “confirmed the drug-induced autophagic activity; also recorded: formation (red fluorescence) of acridine orange-accumulating acidic vesicular organelles (AVOs)”. In addition, the toxicity result in [5] was “non-toxic”.
In the case of `COc1ccc2c(c1OC)C(=O)O[C@@H]2[C@H]1c2c(cc3c(c2OC)OCO3)CCN1C` [noscapine, (S)-6,7-dimethoxy-3-((R)-4-methoxy-6-methyl-5,6,7,8-tetrahydro[1,3]-dioxolo-[4,5-g]isoquinolin-5-yl)isobenzo-furan-1(3H)-one], the “nitric oxide release versus no drug” value in series [8] and in series [9] was “not significant” each time. This molecule also had an LDH release with THP-1 cells [3] of 7 IU/L. In addition, the “cellular toxicity / viability” value in [4] (human and murine macrophages) was “did not induce inflammatory responses or impair cellular viability”. In the series with THP-1 macrophages (50 μM added just prior to PMA-triggered respiratory burst), the “ROS release, LPS primed cells” value is reported as “enhanced ROS release”. In addition, the “ROS release, unprimed macrophages” value with THP-1 macrophages (50 μM added just prior to respiratory burst) is “not in unprimed macrophages”. The “ROS release, primed macrophages” value in the series on THP-1 macrophages (added 2 hr prior to triggering the respiratory burst) is recorded as “no change in ROS release”.
